The values that follow come from patent publication EP4741392A1, “1H-PYRAZOLO[4,3-C]PYRIDINE COMPOUND, AND COMPOSITION THEREOF AND USE THEREOF” (Shenzhen TargetRx Co., Ltd., priority 2023, dated 2025).

Holding throughout (assay type): cell-based
One assay deals with Ramos cells with BTK WT. Put plainly: Phosphor-BTK(Y223) assay, suspended cells. The settings on record: Homo sapiens, Ramos, phosphorylated BTK Y223, Ramos cells with BTK WT. The procedure, abridged:
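Ramos BTK WT cells (2.5 k/well) were treated with compound dilutions for 2 h at 37 °C, then 5 mM Na3VO4 for 3 h. Lysates were read by HTRF p-BTK(Y223) cryptate/d2 antibodies overnight at RT (665/620 ratio). IC50 came from a four-parameter fit of % inhibition versus blank and positive-control wells.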

In a further assay the test system is TMD8 cells. Put plainly: Viability assay of TMD8 cells (CTG). The note with it: Homo sapiens, cell viability, 120 hours. Here is the method: (§1) The in vitro antiproliferative activity of the compounds of the present disclosure against TMD8 cells and OCI-LY10 cells was assayed using CTG (Cell Titer-Glo) luminescent cell viability assay. The specific assay methods were as follows. • a) TMD8 cells were cultured at 37 °C and 5% CO2 in complete medium [RPMI 1640 (supplier Gibco, product number 22400-089) + 10% FBS (supplier Gibco, product number 10091-148) + 1% P/S (supplier Hyclone, product number SV30010)]; OCI-LY10 cells were cultured at 37 °C and 5% CO2 in medium [IMDM (supplier Gibco, product number 31980-030) + 20% FBS (supplier Gibco, product number 10091-148) + 1% P/S (supplier Hyclone, product number SV30010) + 0.05 mM 2-Mercaptoethanol (supplier Sigma, product number M6250)]. • b) Cells in the logarithmic growth phase were harvested, and the total cell count and viable cell count were determined using a Vi-cell cell counter (supplier: BECKMAN COULTER, product number 2785198). • c) Cell density was adjusted using complete culture medium. Then, the cells were inoculated at 1500 cells per well in a 384-well cell culture plate (supplier Greiner, product number 781090). • d) The cells in the 384-well plate were cultured at 37 °C and 5% CO2 overnight. • e) A 10-fold drug solution was prepared, and then the serially diluted compound was transferred to the corresponding assay wells of the 384-well cell plate so that the final assay concentration was 1000 nM, with 9 concentrations, 3-fold dilutions, and triplicates for each drug concentration. • f) The cells in the 384-well plate with the drug added were cultured at 37 °C and 5% CO2 for another 120 hours. • g) The cells were removed from the incubator, and allowed to equilibrate at room temperature for 30 minutes. The cell state and compound solubility were observed under a microscope. • h) An equal volume of CellTiterGlo solution (supplier Promega, product number G7573) was added to each well, and the plate was incubated at room temperature for 30 minutes. • i) Then, the luminescent signal value was detected on an EnVision instrument (supplier PerkinElmer, product number 2441715).
(§2) The data were analyzed using XL-fit software (supplier: ID Business Solutions Ltd., software version: XL fit 5.5.0.5). Nonlinear regression was performed using X=Log(X), and the X values were transformed using a four-parameter Logistic model 205, from which the IC50 values were calculated. Inhibition rate % = (Max−samplevalue)/Max*100.(Max:DMSOnegativecontrol) [formula]

The subject of a further assay is OCI-LY10 cells. Briefly: Viability assay of OCI-LY10 cells (CTG). The settings on record: Homo sapiens, OCI-Ly10, 120 h, cell viability, read-out: OCl-Ly10. As for the experimental part:
as §1, §2

Bounds are passed on as bounds.

For the compound `COc1ccc(F)cc1C(=O)NCc1ccc(-c2ncc(-c3ccn(C)n3)c3[nH]nc(N)c23)cc1` [Example 23, N-(4-(3-amino-7-(1-methyl-1H-pyrazol-3-yl)-1H-pyrazolo[4,3-c]pyridin-4-yl)benzyl)-5-fluoro-2-methoxybenzamide], the IC50 in the assay on Ramos cells with BTK WT, in the assay with TMD8 cells and in the assay with OCI-LY10 cells was not above 5 nM throughout.
In the case of `COc1ccc(F)cc1C(=O)NCc1ccc(-c2ncc(-c3ccc(C(F)(F)F)cn3)c3[nH]nc(N)c23)cc1` [Example 24, N-(4-(3-amino-7-(5-(trifluoromethyl)pyridin-2-yl)-1H-pyrazolo[4,3-c]pyridin-4-yl)benzyl)-5-fluoro-2-methoxybenzamide], the IC50 with Ramos cells with BTK WT is not above 5 nM; with TMD8 cells, not above 5 nM; in the assay on OCI-LY10 cells, 10 to 50 nM.
Consider `COc1ccc(F)cc1C(=O)NCc1ccc(-c2ncc(-c3ccc(S(C)(=O)=O)cn3)c3[nH]nc(N)c23)cc1` [Example 35, N-(4-(3-amino-7-(5-(methylsulfonyl)pyridin-2-yl)-1H-pyrazolo[4,3-c]pyridin-4-yl)benzyl)-5-fluoro-2-methoxybenzamide], for which the IC50 in the assay with Ramos cells with BTK WT, in the assay with TMD8 cells and in the assay on OCI-LY10 cells was not above 5 nM in each case.
For the compound `COc1ccc(F)cc1C(=O)NCc1ccc(-c2ncc(-c3ccc(C)cn3)c3[nH]nc(N)c23)cc1` [Example 37, N-(4-(3-amino-7-(5-methylpyridin-2-yl)-1H-pyrazolo[4,3-c]pyridin-4-yl)benzyl)-5-fluoro-2-methoxybenzamide], the IC50 with Ramos cells with BTK WT, with TMD8 cells and with OCI-LY10 cells was not above 5 nM each time.
For the compound `COc1ccc(F)cc1C(=O)NCc1ccc(-c2ncc(-c3ccc(C4COC4)cn3)c3[nH]nc(N)c23)cc1` [Example 43, N-(4-(3-amino-7-(5-(oxetan-3-yl)pyridin-2-yl)-1H-pyrazolo[4,3-c]pyridin-4-yl)benzyl)-5-fluoro-2-methoxybenzamide], the IC50 with Ramos cells with BTK WT, in the assay on TMD8 cells and in the assay on OCI-LY10 cells was not above 5 nM in each case.
Consider `COc1ccc(F)cc1C(=O)NCc1ccc(-c2ncc(-c3cc4ncccn4n3)c3[nH]nc(N)c23)cc1` [Example 44, N-(4-(3-amino-7-(pyrazolo[1,5-a]pyrimidin-2-yl)-1H-pyrazolo[4,3-c]pyridin-4-yl)benzyl)-5-fluoro-2-methoxybenzamide], for which the IC50 in the assay on Ramos cells with BTK WT, with TMD8 cells and in the assay with OCI-LY10 cells was not above 5 nM throughout.
With `COc1ccc(F)cc1C(=O)NCc1ccc(-c2ncc(-c3ccn4nccc4n3)c3[nH]nc(N)c23)cc1` [Example 46, N-(4-(3-amino-7-(pyrazolo[1,5-a]pyrimidin-5-yl)-1H-pyrazolo[4,3-c]pyridin-4-yl)benzyl)-5-fluoro-2-methoxybenzamide], the results for the IC50 in the assay with Ramos cells with BTK WT, in the assay with TMD8 cells and with OCI-LY10 cells were not above 5 nM, not above 5 nM and 5 to 10 nM, respectively.
Consider `COc1ccc(F)cc1C(=O)NCc1ccc(-c2ncc(-c3ccc(C(=O)N4CCOCC4)cn3)c3[nH]nc(N)c23)cc1` [Example 52, N-(4-(3-amino-7-(5-(morpholine-4-carbonyl)pyridin-2-yl)-1H-pyrazolo[4,3-c]pyridin-4-yl)benzyl)-5-fluoro-2-methoxybenzamide], for which the IC50 with Ramos cells with BTK WT, in the assay on TMD8 cells and in the assay on OCI-LY10 cells was not above 5 nM in each case.
As for `COc1ccc(F)cc1C(=O)NCc1ccc(-c2ncc(-c3ccc(C(=O)N4C[C@H](C)O[C@@H](C)C4)cn3)c3[nH]nc(N)c23)cc1` [Example 53, N-(4-(3-amino-7-(5-((2S,6S)-2,6-dimethylmorpholine-4-carbonyl)pyridin-2-yl)-1H-pyrazolo[4,3-c]pyridin-4-yl)benzyl)-5-fluoro-2-methoxybenzamide], the values for the IC50 with Ramos cells with BTK WT, in the assay with TMD8 cells and in the assay on OCI-LY10 cells were 5 to 10 nM, not above 5 nM and not above 5 nM, respectively.
In the case of `COCCOc1ccc(-c2cnc(-c3ccc(CNC(=O)c4cc(F)ccc4OC)cc3)c3c(N)n[nH]c23)nc1` [Example 59, N-(4-(3-amino-7-(5-(2-methoxyethoxy)pyridin-2-yl)-1H-pyrazolo[4,3-c]pyridin-4-yl)benzyl)-5-fluoro-2-methoxybenzamide], the IC50 in the assay with Ramos cells with BTK WT, in the assay on TMD8 cells and in the assay on OCI-LY10 cells was not above 5 nM in each case.
`COc1ccc(F)cc1C(=O)NCc1ccc(-c2ncc(-c3ccc(OCCN(C)C)cn3)c3[nH]nc(N)c23)cc1` [Example 60, N-(4-(3-amino-7-(5-(2-(dimethylamino)ethoxy)pyridin-2-yl)-1H-pyrazolo[4,3-c]pyridin-4-yl)benzyl)-5-fluoro-2-methoxybenzamide]: the IC50 in the assay with Ramos cells with BTK WT, with TMD8 cells and in the assay on OCI-LY10 cells was not above 5 nM throughout.
As for `COc1ccc(F)cc1C(=O)NCc1ccc(-c2ncc(-c3ccc(OCCN4CCOCC4)cn3)c3[nH]nc(N)c23)cc1` [Example 61, N-(4-(3-amino-7-(5-(2-morpholinoethoxy)pyridin-2-yl)-1H-pyrazolo[4,3-c]pyridin-4-yl)benzyl)-5-fluoro-2-methoxybenzamide], the IC50 with Ramos cells with BTK WT, in the assay on TMD8 cells and with OCI-LY10 cells was not above 5 nM in each case.
Consider `COc1ccc(F)cc1C(=O)NCc1ccc(-c2ncc(-c3ccc(OCCN4CCCC4)cn3)c3[nH]nc(N)c23)cc1` [Example 62, N-(4-(3-amino-7-(5-(2-(pyrrolidin-1-yl)ethoxy)pyridin-2-yl)-1H-pyrazolo[4,3-c]pyridin-4-yl)benzyl)-5-fluoro-2-methoxybenzamide], for which the figures for the IC50 in the assay on Ramos cells with BTK WT, in the assay with TMD8 cells and in the assay on OCI-LY10 cells were 5 to 10 nM, not above 5 nM and not above 5 nM, respectively.
Regarding `COc1ccc(F)cc1C(=O)NCc1ccc(-c2ncc(-c3ccc(C(C)(C)O)cn3)c3[nH]nc(N)c23)cc1` [Example 65, N-(4-(3-amino-7-(5-(2-hydroxypropan-2-yl)pyridin-2-yl)-1H-pyrazolo[4,3-c]pyridin-4-yl)benzyl)-5-fluoro-2-methoxybenzamide], the IC50 with Ramos cells with BTK WT, with TMD8 cells and in the assay on OCI-LY10 cells was not above 5 nM throughout.
As for `COc1ccc(F)cc1C(=O)NCc1ccc(-c2ncc(-c3ccc(CN4CCCCC4)cn3)c3[nH]nc(N)c23)cc1` [Example 66, N-(4-(3-amino-7-(5-(piperidin-1-ylmethyl)pyridin-2-yl)-1H-pyrazolo[4,3-c]pyridin-4-yl)benzyl)-5-fluoro-2-methoxybenzamide], the IC50 in the assay with Ramos cells with BTK WT is 5 to 10 nM; in the assay with TMD8 cells, not above 5 nM; in the assay on OCI-LY10 cells, not above 5 nM.
With `COc1ccc(F)cc1C(=O)NCc1ccc(-c2ncc(-c3ccc(CN4CCOCC4)cn3)c3[nH]nc(N)c23)cc1` [Example 67, N-(4-(3-amino-7-(5-(morpholinomethyl)pyridin-2-yl)-1H-pyrazolo[4,3-c]pyridin-4-yl)benzyl)-5-fluoro-2-methoxybenzamide], the IC50 in the assay on Ramos cells with BTK WT, in the assay with TMD8 cells and in the assay on OCI-LY10 cells was not above 5 nM in each case.
On to `COc1ccc(F)cc1C(=O)NCc1ccc(-c2ncc(-c3ccc(CN4CCN(C)CC4)cn3)c3[nH]nc(N)c23)cc1` [Example 68, N-(4-(3-amino-7-(5-((4-methylpiperazin-1-yl)methyl)pyridin-2-yl)-1H-pyrazolo[4,3-c]pyridin-4-yl)benzyl)-5-fluoro-2-methoxybenzamide], for which the IC50 with Ramos cells with BTK WT, in the assay with TMD8 cells and in the assay on OCI-LY10 cells was not above 5 nM each time.
Consider `COc1ccc(F)cc1C(=O)NCc1ccc(-c2ncc(-c3cc4ccccn4n3)c3[nH]nc(N)c23)cc1` [Example 69, N-(4-(3-amino-7-(pyrazolo[1,5-a]pyridin-2-yl)-1H-pyrazolo[4,3-c]pyridin-4-yl)benzyl)-5-fluoro-2-methoxybenzamide], for which the IC50 in the assay with Ramos cells with BTK WT, with TMD8 cells and in the assay on OCI-LY10 cells was not above 5 nM each time.
For `COc1ccc(F)cc1C(=O)NCc1ccc(-c2ncc(-c3cc4n(n3)CCN(C)C4)c3[nH]nc(N)c23)cc1` [Example 71, N-(4-(3-amino-7-(5-methyl-4,5,6,7-tetrahydropyrazolo[1,5-a]pyrazin-2-yl)-1H-pyrazolo[4,3-c]pyridin-4-yl)benzyl)-5-fluoro-2-methoxybenzamide], the IC50 in the assay on Ramos cells with BTK WT, in the assay on TMD8 cells and with OCI-LY10 cells was not above 5 nM throughout.
